Structures are written as SMILES. Calls of active or inactive are those of the source. The rule behind the calls is not given here.

Experiment [1] relates to MCF7. As to the kind of experiment: Antiproliferative activity against human MCF7 cells assessed as reduction in cell viability at 1 uM incubated for 48 hrs by MTT assay relative to control. It counts as functional. As to conditions: MCF7, 48 h. (Tetrazolium assays rely on reduction of a dye to a coloured formazan, in cell work by metabolically active cells.)
Experiment [2] concerns A549. As to the kind of experiment: cells. As to conditions: Homo sapiens, A549, 48 h.
The next experiment deals with HepG2. Kind of experiment: Cytotoxicity against human HepG2 cells assessed as reduction in cell viability incubated for 48 hrs by MTT assay. As to conditions: HepG2, 48 h. The experiment is classed as functional, cell-based.
The test system of experiment [3] is MCF7. Kind of experiment: cells. As to conditions: Homo sapiens, MCF7, 48 h.
Experiment [4] has as its system A549. Kind of experiment: Induction of apoptosis in human A549 cells assessed as early apoptotic cells at 2 uM incubated for 24 hrs by AnnexinV-FITC/propidium iodide staining-based flow cytometric analysis (reference value: 4.1%). It counts as functional. For orientation: In flow cytometry, cells or beads pass a laser one at a time.
The subject of experiment [5] is A549. As to the kind of experiment: Induction of apoptosis in human A549 cells assessed as necrotic cells at 2 uM incubated for 24 hrs by AnnexinV-FITC/propidium iodide staining-based flow cytometric analysis (reference value: 3.6%). It counts as functional.
The test system of experiment [6] is A549. Kind of experiment: Induction of apoptosis in human A549 cells assessed as late apoptotic cells at 2 uM incubated for 24 hrs by AnnexinV-FITC/propidium iodide staining-based flow cytometric analysis (reference value: 4.2%). It counts as functional.
The test system of experiment [7] is A549. As to the kind of experiment: Induction of apoptosis in human A549 cells assessed as viable cells at 2 uM incubated for 24 hrs by AnnexinV-FITC/propidium iodide staining-based flow cytometric analysis (reference value: 88.1%). The experiment is classed as functional. As to conditions: A549, 24 h, read-out: Activity.
Experiment [8] deals with A549. As to the kind of experiment: Inhibition of Hsp90-Cdc37 interaction in human A549 cells assessed as decrease in Cdc37 protein level at 5 uM incubated for 6 hrs by immunoprecipitation assay. It counts as cell-based.

With `COC(=O)/C(C#N)=C/c1ccc(OCCCOC(=O)[C@]2(C)CC[C@]3(C)CC[C@]4(C)C5=CC=C6C(=CC(=O)C(O)=C6C)[C@]5(C)CC[C@@]4(C)[C@@H]3C2)cc1C`, the inhibition (in general, the share of the control response that was lost under treatment) at 1 µM with MCF7 [1] was determined as 19.8%. Regarding `COC(=O)/C=C\c1ccc(OC)c(OC/C=C/COC(=O)[C@]2(C)CC[C@]3(C)CC[C@]4(C)C5=CC=C6C(=CC(=O)C(O)=C6C)[C@]5(C)CC[C@@]4(C)[C@@H]3C2)c1`, the inhibition at 1 µM in the experiment with MCF7 [1] came out at 49.2%. Same read-out and setting: under `COC(=O)/C(C#N)=C/c1ccc(OCCCOC(=O)[C@]2(C)CC[C@]3(C)CC[C@]4(C)C5=CC=C6C(=CC(=O)C(O)=C6C)[C@]5(C)CC[C@@]4(C)[C@@H]3C2)cc1` stands 22.1%.

Consider `COC(=O)/C(C#N)=C/c1ccc(OCCCOC(=O)[C@]2(C)CC[C@]3(C)CC[C@]4(C)C5=CC=C6C(=CC(=O)C(O)=C6C)[C@]5(C)CC[C@@]4(C)[C@@H]3C2)cc1OC`, for which the inhibition at 1 µM with MCF7 [1] was found to be 11%. `COC(=O)/C(C#N)=C\c1ccc(OC)c(OCCOC(=O)[C@]2(C)CC[C@]3(C)CC[C@]4(C)C5=CC=C6C(=CC(=O)C(O)=C6C)[C@]5(C)CC[C@@]4(C)[C@@H]3C2)c1`: the inhibition at 1 µM with MCF7 [1] turned out to be 79.7%. Further, the IC50 (as a rule, the concentration needed to halve the response being measured) was 460 nM in the experiment with A549 [2], 370 nM in the experiment with HepG2 and 300 nM in the experiment with MCF7 [3]. With `COC(=O)/C=C/c1ccc(OCCCCOC(=O)[C@]2(C)CC[C@]3(C)CC[C@]4(C)C5=CC=C6C(=CC(=O)C(O)=C6C)[C@]5(C)CC[C@@]4(C)[C@@H]3C2)c(OC)c1`, the inhibition at 1 µM in the experiment on MCF7 [1] is 15.9%. The same measure, in the same setting: under `COC(=O)/C=C/c1cc(OC)c(OCCCCOC(=O)[C@]2(C)CC[C@]3(C)CC[C@]4(C)C5=CC=C6C(=CC(=O)C(O)=C6C)[C@]5(C)CC[C@@]4(C)[C@@H]3C2)c(OC)c1` stands 7.52%. As for `CC1=C(O)C(=O)C=C2C1=CC=C1[C@@]2(C)CC[C@@]2(C)[C@@H]3C[C@](C)(C(=O)O)CC[C@]3(C)CC[C@]12C` [CELASTROL], the inhibition at 1 µM with MCF7 [1] is 60.2%. Besides, the Activity in the experiment on A549 [4] is reported as 14.9%; with A549 [5] it was 4.8%; in the experiment with A549 [6], 16.1%. Further, the IC50 in the experiment on A549 [2] turned out to be 1280 nM; in the experiment on HepG2, 1330 nM; in the experiment with MCF7 [3] it was 1060 nM. Moreover, in the experiment on A549 [7], the viability at 2 µM was determined as 64.1%. Besides, the inhibition result with A549 [8] was “Active”.

Take `COC(=O)/C(C#N)=C/c1ccc(OCCCOC(=O)[C@]2(C)CC[C@]3(C)CC[C@]4(C)C5=CC=C6C(=CC(=O)C(O)=C6C)[C@]5(C)CC[C@@]4(C)[C@@H]3C2)c(OC)c1`: the inhibition at 1 µM in the experiment on MCF7 [1] was determined as 66.5%. For the same compound, the results for the IC50 in the experiment on A549 [2], with HepG2 and with MCF7 [3] were 660 nM, 750 nM and 650 nM, respectively. Taken in the same sequence, the figures for `COC(=O)/C=C/c1cc(OC)c(OCCOC(=O)[C@]2(C)CC[C@]3(C)CC[C@]4(C)C5=CC=C6C(=CC(=O)C(O)=C6C)[C@]5(C)CC[C@@]4(C)[C@@H]3C2)c(OC)c1` were 60.3%, 1070 nM, 890 nM and 880 nM.

Turning to `COC(=O)/C(C#N)=C\c1ccc(OC)c(OCCCCOC(=O)[C@]2(C)CC[C@]3(C)CC[C@]4(C)C5=CC=C6C(=CC(=O)C(O)=C6C)[C@]5(C)CC[C@@]4(C)[C@@H]3C2)c1`, the inhibition at 1 µM in the experiment with MCF7 [1] is 27.4%. In the case of `COC(=O)/C(C#N)=C/c1ccc(OCCCOC(=O)[C@]2(C)CC[C@]3(C)CC[C@]4(C)C5=CC=C6C(=CC(=O)C(O)=C6C)[C@]5(C)CC[C@@]4(C)[C@@H]3C2)cc1F`, the inhibition at 1 µM in the experiment on MCF7 [1] was found to be 8.36%.

On to `COC(=O)/C(C#N)=C/c1ccc(OC/C=C/COC(=O)[C@]2(C)CC[C@]3(C)CC[C@]4(C)C5=CC=C6C(=CC(=O)C(O)=C6C)[C@]5(C)CC[C@@]4(C)[C@@H]3C2)c(OC)c1`, for which the inhibition at 1 µM with MCF7 [1] came to 25.7%.

Regarding `COC(=O)/C(C#N)=C/c1ccc(OCCCOC(=O)[C@]2(C)CC[C@]3(C)CC[C@]4(C)C5=CC=C6C(=CC(=O)C(O)=C6C)[C@]5(C)CC[C@@]4(C)[C@@H]3C2)c(C)c1`, the inhibition at 1 µM in the experiment with MCF7 [1] worked out at 21.9%. Same read-out and setting: under `COC(=O)/C=C/c1ccc(OCCOC(=O)[C@]2(C)CC[C@]3(C)CC[C@]4(C)C5=CC=C6C(=CC(=O)C(O)=C6C)[C@]5(C)CC[C@@]4(C)[C@@H]3C2)c(OC)c1` stands 27.7%; under `COC(=O)/C=C\c1cccc(OCCCOC(=O)[C@]2(C)CC[C@]3(C)CC[C@]4(C)C5=CC=C6C(=CC(=O)C(O)=C6C)[C@]5(C)CC[C@@]4(C)[C@@H]3C2)c1`, 33%. For the compound `COC(=O)[C@]12CCC(C)(C)C[C@H]1[C@H]1C(=O)C=C3[C@@]4(C)C=C(C#N)C(=O)C(C)(C)[C@@H]4CC[C@@]3(C)[C@]1(C)CC2` [BARDOXOLONE METHYL], the IC50 in the experiment on A549 [2] is 360 nM; in the experiment on HepG2, 260 nM; with MCF7 [3] it was 350 nM. Regarding `COC(=O)/C(C#N)=C/c1ccc(OCCCCOC(=O)[C@]2(C)CC[C@]3(C)CC[C@]4(C)C5=CC=C6C(=CC(=O)C(O)=C6C)[C@]5(C)CC[C@@]4(C)[C@@H]3C2)c(OC)c1`, the inhibition at 1 µM with MCF7 [1] was found to be 13.8%. Take `COC(=O)/C=C\c1ccc(OC)c(OCCCOC(=O)[C@]2(C)CC[C@]3(C)CC[C@]4(C)C5=CC=C6C(=CC(=O)C(O)=C6C)[C@]5(C)CC[C@@]4(C)[C@@H]3C2)c1`: in the experiment with MCF7 [1], the inhibition at 1 µM was found to be 67.4%. The IC50 in the experiment on A549 [2] was 700 nM; in the experiment with HepG2, 650 nM; in the experiment on MCF7 [3], 670 nM. `COC(=O)/C=C/c1cc(OC)c(OC/C=C/COC(=O)[C@]2(C)CC[C@]3(C)CC[C@]4(C)C5=CC=C6C(=CC(=O)C(O)=C6C)[C@]5(C)CC[C@@]4(C)[C@@H]3C2)c(OC)c1`: the inhibition at 1 µM in the experiment with MCF7 [1] was 18%. `COC(=O)/C=C/c1ccc(OCCCOC(=O)[C@]2(C)CC[C@]3(C)CC[C@]4(C)C5=CC=C6C(=CC(=O)C(O)=C6C)[C@]5(C)CC[C@@]4(C)[C@@H]3C2)c(OC)c1`: the inhibition at 1 µM with MCF7 [1] worked out at 78.5%. Also, the results for the IC50 with A549 [2], in the experiment on HepG2 and in the experiment with MCF7 [3] were 560 nM, 530 nM and 450 nM, respectively.

With `COC(=O)/C=C/c1ccc(OC/C=C/COC(=O)[C@]2(C)CC[C@]3(C)CC[C@]4(C)C5=CC=C6C(=CC(=O)C(O)=C6C)[C@]5(C)CC[C@@]4(C)[C@@H]3C2)c(OC)c1`, the inhibition at 1 µM in the experiment on MCF7 [1] turned out to be 32.5%. `COC(=O)/C(C#N)=C/c1ccc(OCCOC(=O)[C@]2(C)CC[C@]3(C)CC[C@]4(C)C5=CC=C6C(=CC(=O)C(O)=C6C)[C@]5(C)CC[C@@]4(C)[C@@H]3C2)c(OC)c1`: the inhibition at 1 µM in the experiment on MCF7 [1] was 59.9%. With `COC(=O)/C=C/c1cc(OC)c(OCCCOC(=O)[C@]2(C)CC[C@]3(C)CC[C@]4(C)C5=CC=C6C(=CC(=O)C(O)=C6C)[C@]5(C)CC[C@@]4(C)[C@@H]3C2)c(OC)c1`, the inhibition at 1 µM in the experiment on MCF7 [1] came out at 8.61%.

Turning to `COC(=O)/C(C#N)=C\c1ccc(OC)c(OCCCOC(=O)[C@]2(C)CC[C@]3(C)CC[C@]4(C)C5=CC=C6C(=CC(=O)C(O)=C6C)[C@]5(C)CC[C@@]4(C)[C@@H]3C2)c1`, the inhibition at 1 µM in the experiment on MCF7 [1] worked out at 65.9%. Also, the IC50 in the experiment on A549 [2] is 780 nM; in the experiment on HepG2, 710 nM; with MCF7 [3], 640 nM. As to `COC(=O)/C=C/c1ccc(OC/C=C/COC(=O)[C@]2(C)CC[C@]3(C)CC[C@]4(C)C5=CC=C6C(=CC(=O)C(O)=C6C)[C@]5(C)CC[C@@]4(C)[C@@H]3C2)cc1`, the inhibition at 1 µM with MCF7 [1] is 5.29%.

Turning to `COC(=O)/C(C#N)=C\c1cccc(OCCCOC(=O)[C@]2(C)CC[C@]3(C)CC[C@]4(C)C5=CC=C6C(=CC(=O)C(O)=C6C)[C@]5(C)CC[C@@]4(C)[C@@H]3C2)c1`, in the experiment with MCF7 [1], the inhibition at 1 µM is 47%.

For `COC(=O)/C(C#N)=C/c1ccc(OCCCOC(=O)[C@]2(C)CC[C@]3(C)CC[C@]4(C)C5=CC=C6C(=CC(=O)C(O)=C6C)[C@]5(C)CC[C@@]4(C)[C@@H]3C2)c(F)c1`, in the experiment with MCF7 [1], the inhibition at 1 µM was 18.8%. On the same count and under the same terms, under `COC(=O)/C=C\c1ccc(OC)c(OCCCCOC(=O)[C@]2(C)CC[C@]3(C)CC[C@]4(C)C5=CC=C6C(=CC(=O)C(O)=C6C)[C@]5(C)CC[C@@]4(C)[C@@H]3C2)c1` stands 40.1%. Still for that read-out and setting: under `COC(=O)/C(C#N)=C\c1ccc(OC)c(OC/C=C/COC(=O)[C@]2(C)CC[C@]3(C)CC[C@]4(C)C5=CC=C6C(=CC(=O)C(O)=C6C)[C@]5(C)CC[C@@]4(C)[C@@H]3C2)c1` stands 45.6%. Same read-out and setting: under `COC(=O)/C=C/c1ccc(OCCCOC(=O)[C@]2(C)CC[C@]3(C)CC[C@]4(C)C5=CC=C6C(=CC(=O)C(O)=C6C)[C@]5(C)CC[C@@]4(C)[C@@H]3C2)cc1` stands 50.5%; under `COC(=O)/C=C/c1ccc(OCCCCOC(=O)[C@]2(C)CC[C@]3(C)CC[C@]4(C)C5=CC=C6C(=CC(=O)C(O)=C6C)[C@]5(C)CC[C@@]4(C)[C@@H]3C2)cc1`, 0.94%.

Regarding `COC(=O)/C=C/c1ccc(OCCOC(=O)[C@]2(C)CC[C@]3(C)CC[C@]4(C)C5=CC=C6C(=CC(=O)C(O)=C6C)[C@]5(C)CC[C@@]4(C)[C@@H]3C2)cc1`, the inhibition at 1 µM in the experiment on MCF7 [1] came to 63.9%. Besides, the half-inhibitory concentration (IC50) amounted to 600 nM with A549 [2], 600 nM in the experiment on HepG2 and 670 nM with MCF7 [3].

Source of the values: ChEMBL document CHEMBL4393691, “Design, synthesis and antitumor evaluation of novel celastrol derivatives” (Eur J Med Chem, 2019).
